{"source": "paper PMC9544403", "about": "“Schwarzinicine A inhibits transient receptor potential canonical channels and exhibits overt vasorelaxation effects” (Phytotherapy Research, 2022)", "format_in_all_cases": "cell-based", "key": {"hTRPC3": {"target": "T1, hTRPC3 (Homo sapiens, UniProt Q13507)", "T1 construct": "gene TRPC3", "T1 sequence (Q13507 1-921)": "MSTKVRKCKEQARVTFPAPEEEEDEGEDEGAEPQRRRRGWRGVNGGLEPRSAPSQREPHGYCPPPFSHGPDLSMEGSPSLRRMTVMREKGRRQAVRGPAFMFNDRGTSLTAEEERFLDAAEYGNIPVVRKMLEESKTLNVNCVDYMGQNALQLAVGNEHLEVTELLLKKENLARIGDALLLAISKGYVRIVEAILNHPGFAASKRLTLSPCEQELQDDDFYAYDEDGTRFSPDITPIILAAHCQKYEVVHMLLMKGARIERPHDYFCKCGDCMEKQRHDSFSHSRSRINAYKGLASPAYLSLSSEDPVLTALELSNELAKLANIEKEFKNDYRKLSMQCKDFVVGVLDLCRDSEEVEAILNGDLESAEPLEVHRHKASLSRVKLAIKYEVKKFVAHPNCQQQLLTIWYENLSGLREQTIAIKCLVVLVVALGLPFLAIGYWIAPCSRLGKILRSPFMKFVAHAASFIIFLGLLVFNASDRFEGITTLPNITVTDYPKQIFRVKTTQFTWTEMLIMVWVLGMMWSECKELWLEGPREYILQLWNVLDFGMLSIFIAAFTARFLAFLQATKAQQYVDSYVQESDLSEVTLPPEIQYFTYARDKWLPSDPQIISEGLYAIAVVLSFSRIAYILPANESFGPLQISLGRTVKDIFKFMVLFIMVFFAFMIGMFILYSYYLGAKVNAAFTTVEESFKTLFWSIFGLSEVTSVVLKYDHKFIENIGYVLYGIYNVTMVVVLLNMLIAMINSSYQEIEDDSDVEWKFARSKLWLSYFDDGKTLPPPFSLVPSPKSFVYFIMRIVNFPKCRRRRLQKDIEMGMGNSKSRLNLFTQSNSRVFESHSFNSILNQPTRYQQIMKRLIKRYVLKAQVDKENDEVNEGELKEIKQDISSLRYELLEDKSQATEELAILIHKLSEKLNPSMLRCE", "test": "fura-2 intracellular calcium assay, OAG-activated hTRPC3 overexpressed in HEK T-REx cells"}, "hTRPC5": {"target": "T2, hTRPC5 (Homo sapiens, UniProt Q9UL62)", "T2 construct": "gene TRPC5", "T2 sequence (Q9UL62 1-973)": "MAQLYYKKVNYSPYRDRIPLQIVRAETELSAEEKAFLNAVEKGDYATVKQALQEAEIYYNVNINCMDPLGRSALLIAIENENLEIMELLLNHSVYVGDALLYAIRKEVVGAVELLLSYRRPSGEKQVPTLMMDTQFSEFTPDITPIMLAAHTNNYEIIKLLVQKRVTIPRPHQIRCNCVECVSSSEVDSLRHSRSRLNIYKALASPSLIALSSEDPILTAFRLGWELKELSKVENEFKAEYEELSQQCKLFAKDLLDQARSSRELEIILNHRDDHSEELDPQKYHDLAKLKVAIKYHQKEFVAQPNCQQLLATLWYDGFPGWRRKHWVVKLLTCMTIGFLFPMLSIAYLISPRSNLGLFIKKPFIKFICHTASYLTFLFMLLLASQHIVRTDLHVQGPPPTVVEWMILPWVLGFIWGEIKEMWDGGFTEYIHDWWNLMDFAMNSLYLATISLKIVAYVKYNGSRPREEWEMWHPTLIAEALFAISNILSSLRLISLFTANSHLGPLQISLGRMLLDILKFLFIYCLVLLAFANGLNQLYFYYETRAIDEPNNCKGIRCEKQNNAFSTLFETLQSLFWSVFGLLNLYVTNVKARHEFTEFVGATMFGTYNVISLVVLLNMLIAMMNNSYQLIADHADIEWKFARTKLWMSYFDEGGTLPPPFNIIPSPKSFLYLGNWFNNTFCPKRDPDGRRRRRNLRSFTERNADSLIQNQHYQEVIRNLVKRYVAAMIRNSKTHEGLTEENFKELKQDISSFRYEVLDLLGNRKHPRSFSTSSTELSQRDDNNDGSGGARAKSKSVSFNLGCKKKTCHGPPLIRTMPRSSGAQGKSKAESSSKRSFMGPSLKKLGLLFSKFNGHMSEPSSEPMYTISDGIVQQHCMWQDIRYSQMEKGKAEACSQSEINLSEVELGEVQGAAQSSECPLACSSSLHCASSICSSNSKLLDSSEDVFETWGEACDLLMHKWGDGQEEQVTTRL", "test": "fura-2 intracellular calcium assay, S1P-activated hTRPC5 overexpressed in HEK T-REx cells", "source_text": "fura-2 intracellular calcium assay, S1P-activated hTRPC5 overexpressed in HEK T-REx cells on hTRPC5 | S1P‐evoked calcium influx mediated by hTRPC4 and hTRPC5 were inhibited by schwarzinicine A"}, "hTRPC6": {"target": "T3, hTRPC6 (Homo sapiens, UniProt Q9Y210)", "T3 construct": "gene TRPC6", "T3 sequence (Q9Y210 1-931)": "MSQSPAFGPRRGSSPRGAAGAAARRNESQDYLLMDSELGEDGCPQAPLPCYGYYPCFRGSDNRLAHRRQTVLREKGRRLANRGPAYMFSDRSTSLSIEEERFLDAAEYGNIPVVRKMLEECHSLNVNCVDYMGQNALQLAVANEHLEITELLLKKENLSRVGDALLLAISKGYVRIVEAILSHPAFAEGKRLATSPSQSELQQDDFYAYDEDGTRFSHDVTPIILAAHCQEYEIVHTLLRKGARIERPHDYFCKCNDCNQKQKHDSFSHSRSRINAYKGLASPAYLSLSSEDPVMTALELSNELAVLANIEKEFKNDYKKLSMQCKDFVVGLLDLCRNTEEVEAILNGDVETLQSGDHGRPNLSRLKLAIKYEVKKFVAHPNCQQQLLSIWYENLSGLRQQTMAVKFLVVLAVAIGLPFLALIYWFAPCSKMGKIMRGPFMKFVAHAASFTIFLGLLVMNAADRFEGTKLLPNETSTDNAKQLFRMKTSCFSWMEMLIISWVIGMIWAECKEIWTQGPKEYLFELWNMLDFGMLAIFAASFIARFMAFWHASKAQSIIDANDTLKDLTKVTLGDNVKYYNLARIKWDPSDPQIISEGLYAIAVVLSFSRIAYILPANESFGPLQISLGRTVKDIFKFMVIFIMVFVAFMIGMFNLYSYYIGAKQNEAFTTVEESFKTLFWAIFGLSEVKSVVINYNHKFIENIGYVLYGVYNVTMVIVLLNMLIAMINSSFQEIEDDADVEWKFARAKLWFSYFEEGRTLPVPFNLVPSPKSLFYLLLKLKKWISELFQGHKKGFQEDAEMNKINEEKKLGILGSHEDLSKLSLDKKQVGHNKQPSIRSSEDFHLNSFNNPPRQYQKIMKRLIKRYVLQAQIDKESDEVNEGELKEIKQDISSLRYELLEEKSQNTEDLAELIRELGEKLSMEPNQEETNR", "test": "fura-2 intracellular calcium assay, OAG-activated hTRPC6 transfected in HEK […] cells"}, "hTRPC4": {"target": "T4, hTRPC4 (Homo sapiens, UniProt Q9UBN4)", "T4 construct": "gene TRPC4", "T4 sequence (Q9UBN4 1-977)": "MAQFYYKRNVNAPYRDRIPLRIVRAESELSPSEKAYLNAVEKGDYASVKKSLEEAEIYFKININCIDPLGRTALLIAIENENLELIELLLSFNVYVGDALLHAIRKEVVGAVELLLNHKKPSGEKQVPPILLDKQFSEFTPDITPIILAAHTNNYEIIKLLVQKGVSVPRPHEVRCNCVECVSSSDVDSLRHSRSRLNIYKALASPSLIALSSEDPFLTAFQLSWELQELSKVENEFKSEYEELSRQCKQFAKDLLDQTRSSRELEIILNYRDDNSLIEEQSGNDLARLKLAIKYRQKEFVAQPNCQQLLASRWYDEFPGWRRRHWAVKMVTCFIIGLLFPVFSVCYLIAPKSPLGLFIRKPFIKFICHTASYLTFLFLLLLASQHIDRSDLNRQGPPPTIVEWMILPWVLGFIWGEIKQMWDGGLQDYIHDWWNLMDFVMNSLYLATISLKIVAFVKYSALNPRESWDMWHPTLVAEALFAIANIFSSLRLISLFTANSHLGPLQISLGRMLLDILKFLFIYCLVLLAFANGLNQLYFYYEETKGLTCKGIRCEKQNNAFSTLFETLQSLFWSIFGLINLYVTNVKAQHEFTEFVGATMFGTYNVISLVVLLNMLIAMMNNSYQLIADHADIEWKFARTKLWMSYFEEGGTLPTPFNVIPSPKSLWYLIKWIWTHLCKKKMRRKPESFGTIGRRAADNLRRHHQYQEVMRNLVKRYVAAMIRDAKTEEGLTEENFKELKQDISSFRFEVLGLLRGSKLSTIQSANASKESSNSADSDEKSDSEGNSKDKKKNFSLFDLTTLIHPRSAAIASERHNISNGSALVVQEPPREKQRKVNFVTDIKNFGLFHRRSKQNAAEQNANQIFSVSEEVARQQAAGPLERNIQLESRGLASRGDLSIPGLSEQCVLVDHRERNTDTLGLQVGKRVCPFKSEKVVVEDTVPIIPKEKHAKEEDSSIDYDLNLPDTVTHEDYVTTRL", "test": "fura-2 intracellular calcium assay, S1P-activated hTRPC4 overexpressed in HEK T-REx cells"}}, "data": [{"molecule": "COc1ccc(CCNC(CCc2ccc(OC)c(OC)c2)Cc2ccc(OC)c(OC)c2)cc1OC", "note": "(racemic) [schwarzinicine A, N‐(3,4‐dimethoxyphenethyl)‐1,4‐bis(3,4‐dimethoxyphenyl)butan‐2‐amine]", "values": [{"measurement": "IC50", "setting": "hTRPC3", "result": 3, "unit": "µM"}, {"measurement": "IC50", "setting": "hTRPC5", "result": 19, "unit": "µM"}, {"measurement": "IC50", "setting": "hTRPC6", "result": 7, "unit": "µM"}, {"measurement": "IC50", "setting": "hTRPC4", "result": 17, "unit": "µM"}]}]}
